“And” between values parts separate entries of the source, which are not always exact repeats. Identical values can stand only once. Each block holds one compound with its values, some of them ahead of it.
What was measured:
[1] = tested on: human prostate and breast tumors; test: Human prostate and breast tumors in animal models; assay type: in vivo, nude mice
Description: A compound of this invention can be used to treat breast or prostate cancer. […] By way of example, human prostate cancer PC-3 cells are grown in culture medium. About one million cells are injected into male nude mice and the growth of tumors followed. Within two weeks, the tumor grows to about 100 mm^3. Three tumor bearing mice are injected with a test compound each day.

[2] = target: T1, type 1 human 5α-reductase (HRED1) (Homo sapiens, UniProt P18405); test: Whole cell assay of 5α-reductase, type 1 isoenzyme; assay type: cell-based; parameters: expressed in transfected cells; host or cells: rat 1A cells infected with pMV7 retrovirus; settings: whole cell assay; for IC50: read-out: HCRED1 IC50;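 for all read-outs here: intact rat 1A cells engineered to express the human type 1 5α-reductase isozyme serve as the enzyme source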
T1 sequence (P18405 1-259): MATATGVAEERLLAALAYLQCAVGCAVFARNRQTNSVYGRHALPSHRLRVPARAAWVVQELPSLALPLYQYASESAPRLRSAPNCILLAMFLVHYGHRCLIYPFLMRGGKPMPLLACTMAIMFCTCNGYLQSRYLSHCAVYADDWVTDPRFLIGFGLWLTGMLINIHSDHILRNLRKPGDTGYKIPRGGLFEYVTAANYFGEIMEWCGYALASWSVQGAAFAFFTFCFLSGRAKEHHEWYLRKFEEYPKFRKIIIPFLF

[3] = Body and organ weight loss; assay type: in vivo; settings: compared with ECG
Description: By way of example, male Sprague-Dawley rats (body weight 180 g±10 g) are used. Compounds are intraperitoneally injected into rats in one group each day for 7 days. Rats in the control group receive 0.1 ml 30% ethanol. Body and organ weights are determined.

[4] = target: T1, type 1 human 5α-reductase (HRED1); test: Cell free assay of 5α-reductase, microsomes of rat 1A cells expressing type 1 isoenzyme (HRED1); assay type: biochemical; parameters: expressed in transfected cells; host or cells: rat 1A cells infected with pMV7 retrovirus; microsomes;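 note: microsomes from rat 1A cells expressing human type 1 5α-reductase, conversion of radiolabeled testosterone to dihydrotestosterone quantified by thin layer chromatography with radioanalytic scanning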
[5] = target: T2, type 2 human 5α-reductase (HRED2) (Homo sapiens, UniProt P31213); test: Whole cell assay of 5α-reductase, type 2 isoenzyme; assay type: cell-based; parameters: expressed in transfected cells; host or cells: rat 1A cells infected with pMV7 retrovirus; settings: for inhibition at 100 µM: Table 7; for IC50: Table 7, read-out: HCRED2 IC50;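 for all read-outs here: intact rat 1A cells genetically modified to carry human type 2 5α-reductase served as the enzyme source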
T2 sequence (P31213 1-254): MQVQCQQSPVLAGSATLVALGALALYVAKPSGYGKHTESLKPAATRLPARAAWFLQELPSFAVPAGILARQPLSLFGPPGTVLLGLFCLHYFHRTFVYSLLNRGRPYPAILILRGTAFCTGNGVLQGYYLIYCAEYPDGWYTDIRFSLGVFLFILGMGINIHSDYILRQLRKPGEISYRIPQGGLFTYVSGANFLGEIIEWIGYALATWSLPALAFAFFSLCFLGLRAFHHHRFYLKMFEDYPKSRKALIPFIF

[6] = tested on: 5α-reductases isozyme 2 and isozyme 1; settings: Russell and Wilson, 1994; cited from earlier work
[7] = target: T2, type 2 human 5α-reductase (HRED2); test: Cell free assay of 5α-reductase, microsomes of rat 1A cells expressing type 2 isoenzyme (HRED2); assay type: biochemical; parameters: expressed in transfected cells; host or cells: rat 1A cells infected with pMV7 retrovirus; microsomes; settings: for IC50: read-out: HRED2 IC50;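 for all read-outs here: labeled testosterone and its product dihydrotestosterone measured in microsomal reaction extracts via thin layer chromatography plus radioanalytic scanning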
[8] = 100 uM, cell free assay, Table 2, read-out: HRED2 % Inhibition @ 100 uM
[9] = cell free assay, Table 2 catechols
[10] = 100 uM, cell free assay, Table 2, read-out: HRED1 % Inhibition @ 100 uM
[11] = cell free assay, Table 2 catechols, read-out: HRED1 IC50

Compound: O=C(O[C@@H]1Cc2c(O)cc(O)cc2O[C@@H]1c1cc(O)c(O)c(O)c1)c1cc(O)c(O)c(O)c1 [Epigallocatechin Gallate]
effect on size of human prostate and breast tumors [1]: surprisingly effective in suppressing and even reducing the size
inhibitory activity in the whole cell assay, type 1 isoenzyme, in words [2]: low
reduction of body weight [3]: significantly more effective
inhibitory activity against type 1 isoenzyme, in words ([4]; cell-free assay): high
HRED2 % Inhibition @ 100 μM ([5]; Table 7, listed as EGCG): 5% and 0%

Compound: CC(C)(C)NC(=O)[C@H]1CC[C@H]2[C@@H]3CC[C@H]4NC(=O)C=C[C@]4(C)[C@H]3CC[C@]12C [Finasteride]
affinity for isozyme 2 relative to isozyme 1 [6]: 30 fold

inhibition at 100 µM ([2]; 100 μM, Table 7): 5%
IC50 ([2]; Table 7): > 100 µM
inhibition at 100 µM [7, 8]: 0%
IC50 [7, 9]: > 100 µM
inhibition at 100 µM [4, 10]: 0%
IC50 [4, 11]: > 100 µM
inhibition at 100 µM [5]: 0%
IC50 [5]: > 100 µM
Compound: CCCOC(=O)c1cc(O)c(O)c(O)c1 [Propylgallate]

Compound: O=C1c2ccccc2C(=O)c2c(O)c(O)cc(O)c21 [Purpurin]
inhibition at 100 µM ([2]; 100 μM, Table 7): 47%
IC50 ([2]; Table 7): > 100 µM
IC50 ([7]; cell free assay, Table 4 quinones): > 100 µM
IC50 ([4]; cell free assay, Table 4 quinones, read-out: HRED1 IC50): 2 µM
inhibition at 100 µM [5]: 7%
IC50 [5]: > 100 µM

HRED1 % Inhibition @ 100 μM ([2]; 100 μM, Table 7): 5%
inhibition at 100 µM ([2]; 100 μM, Table 7): 7%
IC50 ([2]; Table 7): > 100 µM
inhibition at 100 µM [7, 8]: 28%
IC50 [7, 9]: > 100 µM
inhibition at 100 µM [4, 10]: 60%
IC50 [4, 11]: 70 µM
HRED2 % Inhibition @ 100 μM ([5]; Table 7, 100 µM): 6%
IC50 [5]: > 100 µM
Compound: Oc1cccc(O)c1O [Pyrogallol]

Compound: O=c1c(O)c(-c2ccc(O)c(O)c2)oc2cc(O)cc(O)c12 [Quercitin]
inhibition at 100 µM ([2]; 100 μM, Table 7): 15%
IC50 ([2]; Table 7): > 100 µM
inhibition at 100 µM ([7]; 100 uM, cell free assay, Table 1, read-out: HRED2 % Inhibition @ 100 uM): 14%
IC50 ([7]; cell free assay, Table 1 flavanoids): > 100 µM
inhibition at 100 µM ([4]; 100 uM, cell free assay, Table 1, read-out: HRED1 % Inhibition @ 100 uM): 96%
IC50 ([4]; cell free assay, Table 1 flavanoids, read-out: HRED1 IC50): 23 µM
IC50 ([4]; cell-free assay, read-out: IC50, type 1 isoenzyme): < 100 µM
inhibition at 100 µM [5]: 29%
IC50 [5]: > 100 µM

inhibition at 100 µM ([2]; 100 μM, Table 7): 10%
IC50 ([2]; Table 7): > 100 µM
inhibition at 100 µM ([7]; 100 μM, cell free assay, Table 6, read-out: HRED2 % Inhibition @ 100 μM): 35%
IC50 ([7]; cell free assay, Table 6 fatty acids): > 100 µM
inhibition at 100 µM ([4]; 100 μM, cell free assay, Table 6, read-out: HRED1 % Inhibition @ 100 μM): 71%
IC50 ([4]; cell free assay, Table 6 fatty acids, read-out: HRED1 IC50): 27 µM
inhibition at 100 µM [5]: 23%
IC50 [5]: > 100 µM
Compound: CCCCCCCCCCCCCCCCCC(=O)O [Stearic Acid, Stearic Acid C18:0]

Compound: COc1cc(CCC(=O)CC(=O)CCc2ccc(O)c(OC)c2)ccc1O [Tetrahydrocurcumin]
inhibition at 100 µM ([2]; 100 μM, Table 7): 81%
IC50 ([2]; Table 7): 36 µM
inhibition at 100 µM ([7]; read-out: HRED2 % Inhibition @ 100 uM): 73%
IC50 [7]: 29 µM
IC50 ([4]; cell free assay, Table 3 curcumin and related compounds, read-out: HRED1 IC50): 80 µM
inhibition at 100 µM ([4]; read-out: HRED1 % Inhibition @ 100 uM): 56%
inhibition at 100 µM [5]: 92%
IC50 [5]: 7 µM
